Data reported in patent US4983633A, “Amide compounds, process for preparing the same, and composition for activating gastric motor function containing the same” (Hokuriku Pharmaceutical Co., Ltd., priority 1987, dated 1991).
pEC50: −log10 of the molar value. Several values for one entry are separate records, joined by “and”; a condition that tells them apart may be missing. Identical values can stand only once. Counter-ions that a name gives are not always drawn.

Legend:
[1] = test system: isolated guinea pig ileum; assay: Contractile effects of the test compounds in isolated guinea pig ileum; design: species or system guinea pig (male Hartley); details: for pEC50: Cavia porcellus, isolated ileum strips, 37° C, relative to 10^-6 M acetylcholine-induced contraction, read-out: ED50 (dose which evoked 50% of the acetylcholine-induced contraction)
Method: Contractile effects of the test compounds in isolated guinea pig ileum
Male Hartley guinea-pigs weighing about 450 g were sacrificed and the ileum was excised. Then intact strips 1.5-2.0 cm long were prepared. These preparations were suspended vertically in an organ bath filled with Krebs-Henseleit's solution at 37° C. which was gassed with 95% O2 and 5% CO2. Rhythmic contractions of the preparations were isotonically measured. Effects of the test compounds were assessed as the relative percentage of a test compound against 10^-6 M acetylcholine-induced contractions. Results were as follows (Table 1).
*The dose which evoked 50% of the acetylcholineinduced contraction.

[2] = test system: dopamine-induced suppression of gastrointestinal transit; assay: Improving effects on dopamine-induced suppression of gastrointestinal transit in mice (charcoal meal); type: in vivo, mice (male ddY); details: for improvement of gastrointestinal transit inhibited by dopamine (in words): 30 mg/kg p.o.; for Improvement (%) / Gastrointestinal transit (% ± S.E.): test compound 30 mg/kg p.o. + dopamine 2 mg/kg i.p.; for Gastrointestinal transit (% ± S.E.): 20 min after charcoal meal
Method: Improving effects of the test compound on dopamine-induced suppression of gastrointestinal transit in mice
Male mice of the ddY strain weighing about 22 g were fasted overnight and the test compounds (suspended in 0.5% carboxymethylcellulose) were administered orally. Thirty minutes later dopamine (2 mg/kg dissolved in saline) or saline only was administered intraperitoneally followed immediately by the oral administration of charcoal meal (5% charcoal powder suspended in 10% gum arabic). Twenty minutes later the animals were sacrificed and the digestive tracts were isolated from the stomach to the cecum. The gastrointestinal transit was determined by calculating the total intestinal length between the pylorus and the cecum and the length over which charcoal meal was carried from the pylorus. Statistical analysis was carried out by Student's t-test for unpaired observations.

[3] = test system: apomorphine-induced emesis; assay: Suppressing effects on apomorphine-induced emesis in beagle dogs; type: in vivo, beagle dogs (male); details: apomorphine s.c., observed for sixty minutes
Method: Suppressing effects of the test compounds on apomorphine-induced emesis in beagle dogs
Male beagle dogs weighing about 8 kg were fasted overnight. The test compounds (suspended or dissolved in 0.5% CMC) were administered orally and the dogs fed fortyfive minutes later.

[4] = Acute toxicological study in mice (up and down method); details: mouse, in vivo; intravenous, male ICR mice aged 5 weeks
Method: Acute toxicological study in mice
Male ICR mice aged 5 weeks were used for each determination. The test compounds (2-4 different doses) were intravenously administered and LD50 values were calculated using the up and down method. Results were as follows (Table 3).

Row | pEC50 [1] | SMILES | LD50 [4] | also measured
1 | 6.30 | CN(C)CCOc1ccc(CNC(=O)c2ccccc2)cc1 [Compound 20] | – | –
2 | 6.47 | CNS(=O)(=O)c1ccc(OC)c(C(=O)NCc2ccc(OCCN(C)C)cc2)c1 [Compound 36] | – | –
3 | 5.20 | CCN(CC)CCNC(=O)c1cc(Cl)c(N)cc1OC [Metoclopramide HCl, 4-Amino-5-chloro-N-[(2-diethylamino)ethyl]-2-methoxybenzamide] | – | improvement of gastrointestinal transit inhibited by dopamine (in words) [2]: did not so only to a much lesser extent; Improvement (%) [2]: 27.1%; Gastrointestinal transit (% ± S.E.) [2]: 37.2 ± 3.2%; antiemetic effect ([3]; 1 mg/kg p.o.): significant antiemetic effect
4 | 6.30 | Cc1cc(C(=O)NCc2ccc(OCCN3CCCC3)cc2)ccc1[N+](=O)[O-] [Compound 63] | – | –
5 | 5.34 | CN(C)CCOc1ccc(CNC(=O)c2cccc(Cl)c2)cc1 [Compound 45] | – | –
6 | 6.49 | Cc1ccc(C(=O)NCc2ccc(OCCN3CCCC3)cc2)cc1 [Compound 56] | – | –
7 | – | COc1ccc(C(=O)NCc2ccc(OCCN3CCCC3)cc2)cc1OC [Compound 18, 3,4-Dimethoxy-N-[4-[2-(1-pyrrolidinyl)ethoxy]benzyl]benzamide] | – | Improvement (%) [2]: 71.7%; Gastrointestinal transit (% ± S.E.) [2]: 43.0 ± 6.5%
8 | 6.03 | N#Cc1ccc(C(=O)NCc2ccc(OCCN3CCCC3)cc2)cc1 [Compound 57] | – | –
9 | 6.21 | CN(C)CCOc1ccc(CNC(=O)c2ccc(Cl)cc2Cl)cc1 [Compound 59] | – | –
10 | 6.21 | COc1ccc(C(=O)NCc2ccc(OCCN(C)C)cc2)cc1 [Compound 24] | – | –
11 | 6.38 | O=C(NCc1ccc(OCCN2CCCC2)cc1)c1cccc([N+](=O)[O-])c1 [Compound 58] | – | –
12 | 6.35 | CN(C)CCOc1ccc(CNC(=O)c2ccc([N+](=O)[O-])cc2)cc1 [Compound 52] | – | –
13 | 5.89 | CN(C)CCOc1ccc(CNC(=O)c2ccc(N(C)C)cc2)cc1 [Compound 55] | – | –
14 | 5.82 | COc1cc(C(=O)NCc2ccc(OCCN(C)C)cc2)cc(OC)c1OC [Trimethobenzamide HCl, N-[4-[2-(dimethylamino)ethoxy]benzyl]-3,4,5-trimethoxybenzamide] | – | improvement of gastrointestinal transit inhibited by dopamine (in words) [2]: did not so only to a much lesser extent; Improvement (%) [2]: 32.4%; Gastrointestinal transit (% ± S.E.) [2]: 38.2 ± 3.8%; antiemetic effect ([3]; 30 mg/kg p.o.): significant antiemetic effect
15 | 6.41 | CN(C)CCOc1ccc(CNC(=O)c2ccc(Cl)c(S(=O)(=O)N(C)C)c2)cc1 [Compound 39] | – | –
16 | 6.46 | COc1ccc(S(N)(=O)=O)cc1C(=O)NCc1ccc(OCCN2CCCCC2)cc1 [Compound 38] | – | –
17 | 6.52 | COc1ccc(S(=O)(=O)N(C)C)cc1C(=O)NCc1ccc(OCCN(C)C)cc1 [Compound 7, N-[4-[2-(Dimethylamino)ethoxy]benzyl]-5-dimethylaminosulfonyl 2-methoxybenzamide] | – | –
18 | 6.22 | CN(C)S(=O)(=O)c1cc(C(=O)NCc2ccc(OCCN3CCCC3)cc2)ccc1Cl [Compound 40] | – | –
19 | – | NCCc1ccc(O)c(O)c1 [Dopamine, dopamine] | – | Gastrointestinal transit (% ± S.E.), dopamine alone ([2]; dopamine alone 2 mg/kg i.p., no test compound (model control group)): 25.0 ± 3.4% and 35.9 ± 2.1% and 32.9 ± 3.1% and 32.1 ± 2.0% and 31.7 ± 3.2%
20 | 6.41 | Cc1cc(C(=O)NCc2ccc(OCCN(C)C)cc2)ccc1[N+](=O)[O-] [Compound 62] | – | –
21 | 6.74 | COc1ccc(S(N)(=O)=O)cc1C(=O)NCc1ccc(OCCN2CCCC2)cc1 [Compound 37] | – | –
22 | 6.89 | COc1cc(N)c(S(N)(=O)=O)cc1C(=O)NCc1ccc(OCCN(C)C)cc1 [Compound 41] | – | –
23 | > 7.00 | CNS(=O)(=O)c1ccc(OC)c(C(=O)NCc2ccc(OCCN3CCCC3)cc2)c1 [Compound 43] | – | –
24 | 6.16 | COc1cc(OC)cc(C(=O)NCc2ccc(OCCN(C)C)cc2)c1 [Compound 14] | – | –

Row | SMILES | pEC50 [1] | LD50 [4] | also measured
25 | COc1ccc(S(N)(=O)=O)cc1C(=O)NCc1ccc(OCCN(C)C)cc1 [Compound 6, N-[4-[2-(Dimethylamino)ethoxy]benzyl]-2-methoxy-5-sulfamoylbenzamide] | 6.40 | 39.2 mg/kg | –
26 | COc1cc(N)c(Cl)cc1C(=O)NCc1ccc(OCCN2CCCC2)cc1 [Compound 34, 4-amino-5-chloro-2-methoxy-N-[4-[2-(1-pyrrolidinyl)ethoxy]benzyl] benzamide] | 6.92 | 44.7 mg/kg | Improvement (%) [2]: 63.4%; Gastrointestinal transit (% ± S.E.) [2]: 46.6 ± 3.4%
27 | Cc1ccc(C(=O)NCc2ccc(OCCN(C)C)cc2)cc1 [Compound 48] | 6.29 | 83.2 mg/kg | –
28 | CN(C)CCOc1ccc(CNC(=O)c2cccc([N+](=O)[O-])c2)cc1 [Compound 51] | 6.21 | 85.9 mg/kg | –
29 | CN(C)CCOc1ccc(CNC(=O)c2ccc(S(N)(=O)=O)cc2)cc1 [Compound 8, N-[4-[2-(Dimethylamino)ethoxy]benzyl]-4-sulfamoylbenzamide] | 5.80 | 85.1 mg/kg | –
30 | CCOc1ccc(C(=O)NCc2ccc(OCCN(C)C)cc2)cc1OCC [Compound 32] | 6.85 | 112 mg/kg | –
31 | COc1cc(N)c(Cl)cc1C(=O)NCc1ccc(OCCN2CCCCC2)cc1 [Compound 35] | 6.31 | 61.7 mg/kg | –
32 | Cc1cccc(C(=O)NCc2ccc(OCCN(C)C)cc2)c1 [Compound 47] | 5.52 | 68.5 mg/kg | –
33 | COc1cc(N)c(Cl)cc1C(=O)NCc1ccc(OCCN(C)C)cc1 [Compound 5, 4-Amino-5-chloro-N-[4-[2-(dimethylamino)ethoxy]benzyl]-2-methoxybenzamide] | 6.74 | 94 mg/kg | –
34 | CCOc1ccc(C(=O)NCc2ccc(OCCN(C)C)cc2)cc1OC [Compound 31, N-[4-[2-(dimethylamino)ethoxy]benzyl]-4-ethoxy-3-methoxybenzamide] | 6.38 | 105 mg/kg | Improvement (%) [2]: 58.5%; Gastrointestinal transit (% ± S.E.) [2]: 45.2 ± 3.0%
35 | COc1ccc(C(=O)NCc2ccc(OCCN3CCCCC3)cc2)cc1OC [Compound 19] | 6.38 | 70.8 mg/kg | –
36 | COc1cccc(C(=O)NCc2ccc(OCCN(C)C)cc2)c1 [Compound 23] | 6.52 | 74.1 mg/kg | –
37 | O=C(NCc1ccc(OCCN2CCCC2)cc1)c1ccc2c(c1)OCO2 [Compound 3, 3,4-Methylenedioxy-N-[4-[2-(1-pyrrolidinyl)ethoxy]benzyl]benzamide] | 6.34 | 62.6 mg/kg | Improvement (%) [2]: 56.9%; Gastrointestinal transit (% ± S.E.) [2]: 44.0 ± 4.7%
38 | COc1ccc(C(=O)NCc2ccc(OCCN(C)C)cc2)cc1OC.Cl [Compound 2, N-[4-[2-(Dimethylamino)ethoxy]benzyl]-3,4-dimethoxybenzamide hydrochloride] | 6.22 | 191 mg/kg | times stronger contractile effect than metoclopramide.HCl ([1]; isolated guinea pig ileum, compared with metoclopramide.HCl): about 10 times; times stronger contractile effect than trimethobenzamide.HCl ([1]; isolated guinea pig ileum, compared with trimethobenzamide.HCl): about 2.5 times; Improvement (%) [2]: 56.5%; Gastrointestinal transit (% ± S.E.) [2]: 43.9 ± 2.8%; antiemetic effect ([3]; 30 mg/kg p.o.): slight antiemetic effect
39 | CCOc1ccc(C(=O)NCc2ccc(OCCN(C)C)cc2)cc1 [Compound 25] | 6.17 | 87.1 mg/kg | –
40 | CN(C)CCOc1ccc(CNC(=O)c2ccc(C#N)cc2)cc1 [Compound 53] | 6.34 | 77.6 mg/kg | –
